Like-named read-outs stand apart in the source and are kept apart here.
Columns and labels:
[1] = target: T1, binding of 3H-pirenzepine to brain homogenate of rat (Rattus norvegicus, UniProt P08482); experiment: Inhibition against binding of 3H-pirenzepine to brain homogenate of rat
T1 construct: from tissue; host or cells: brain of male SD rats, cerebellum removed; supernatant of 1000×g, re-homogenized
T1 sequence (P08482 1-460): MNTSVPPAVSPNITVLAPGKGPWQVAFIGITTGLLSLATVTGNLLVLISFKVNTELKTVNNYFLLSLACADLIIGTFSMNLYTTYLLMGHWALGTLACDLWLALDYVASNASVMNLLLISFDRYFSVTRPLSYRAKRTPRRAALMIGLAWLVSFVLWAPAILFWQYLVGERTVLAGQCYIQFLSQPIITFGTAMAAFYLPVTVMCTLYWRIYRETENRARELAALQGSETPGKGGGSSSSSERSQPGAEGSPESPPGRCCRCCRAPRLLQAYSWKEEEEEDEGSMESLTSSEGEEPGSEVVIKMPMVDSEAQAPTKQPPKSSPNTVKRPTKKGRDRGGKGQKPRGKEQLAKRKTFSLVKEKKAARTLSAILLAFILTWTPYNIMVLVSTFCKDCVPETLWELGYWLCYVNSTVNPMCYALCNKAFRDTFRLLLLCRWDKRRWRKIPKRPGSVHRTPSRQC
Description: (Inhibition against binding of 3H-pirenzepine to brain homogenate of rat)
A brain homogenate of rat was prepared in accordance with the method described by Yamanura and Synder ["Proc. Natr. Acad. Sci. USA", Vol. 71, pages 1725-1729 (1974)]. Namely, SD male rats were killed by decapitation to exentrate each brain. From the brains, each cerebellum was removed and 0.32 M aqueous sucrose solution in 10-folds by volume was added under ice-cooling condition to homogenize the same by a Potter-Elvehjem type glass homogenizer. The resulting homogenate was centrifuged for 10 minutes (1000×g) to obtain a supernatant by removing a precipitate, which supernatant was further homogenized by a homogenizer of "Polytron" to obtain a fraction to be used as a brain homogenate.
Tests were carried out according to the method described by Flynn and Mash ["J. Pharm. Exp. Ther.", Vol. 250, pages 573-581 (1989). Namely, to the brain homogenate (0.035 ml, protein content: 0.6 mg), 550 mM phosphate buffer (pH 7.4, 1 ml) containing 2.0 nM ^3 H-pirenzepine and a Test or Control compound (1 ml, if the test or control compound is solid form, it is dissolved by the 550 mM phosphate buffer) were added to cause a reaction for 60 minutes at room temperature. Then, an ice-cooled buffer (3.0 ml) same with the above was added to the reaction mixture. Thereafter, the mixture was filtrated by a Whattman GF/B filter which was previously dipped in 0.1% polyethyleneimine solution for 60 minutes. The filter was washed twice by the buffer solution (each 3.0 ml) and an emulsion scintillatot for measuring luminescence by a scintillation counter. A 50% inhibition (IC50)of the test or control compound against binding of 3H-pirenzepine to brain homogenate was calculated.

[2] = tested on: acetylchotine esterass; conditions: background; cited from earlier work
[3] = 2.0 nM 3H-pirenzepine; rat brain homogenate without cerebellum; 550 mM phosphate buffer pH 7.4; 60 minutes at room temperature; read-out: 50% inhibition (IC50) against binding of 3H-pirenzepine to brain homogenate

| Structure (SMILES) | IC50 [1, 3] | further results |
| --- | --- | --- |
| C=C1CC2(CCN(C)CC2)OC1C (stereo not drawn) [2,8-Dimethyl-3-methylene-1-oxa-8-azabicyclo-[4.5]decane, reference compound] | 23600 nM |  |
| CN(CC12CCCN1CCC2)c1ccc(Cl)c2ccccc12 [Example 1, 1-[N-(1-Azabicyclo[3.3.0]octan-5-yl)methyl-N-methylamino]-4-chloronaphthalene] | 10 nM |  |
| COc1ccc(N(C)CC23CCCN2CCC3)c2ccccc12 [Example 3, 1-[N-(1-Azabicyclo[3.3.0]octan-5-yl)methyl-N-methylamino]-4-methoxynaphthalene] | 90 nM |  |
| CN(CC12CCCN1CCC2)c1cccc2ccccc12 [Example 6, 1-[N-(1-Azabicyclo[3.3.0]octan-5-yl)methyl-N-methylamino]-naphthalene] | 30 nM |  |
| CN(CC12CCCN1CCC2)c1ccc(F)c2ccccc12 [Example 8, 1-[N-(1-Azabicyclo[3.3.0]octan-5-yl)methyl-N-methylamino]-4-fluoronaphthalene] | 20 nM |  |
| CCN(CC12CCCN1CCC2)c1ccc([N+](=O)[O-])c2ccccc12 [Example 12, 1-[N-(1-azabicyclo[3.3.0]octan-5-yl)methyl-N-ethylamino]-4-nitronaphthalene] | 200 nM |  |
| O=CN(CC12CCCN1CCC2)c1ccccc1 [Example 13, N-(1-azabicyclo[3.3.0]octan-5-yl)methyl-N-formylaniline] | 300 nM |  |
| CN(CC12CCCN1CCC2)c1ccccc1[N+](=O)[O-] [Example 17, N-(1-azabicyclo[3.3.0]octan-5-yl)methyl-N-methyl-2-nitroaniline] | 200 nM |  |
| CN(CC12CCCN1CCC2)c1ccccc1-c1ccccc1 [Example 20, N-(1-Azabicyclo[3.3.0]octan-5-yl)methyl-N-methyl-2-phenylaniline] | 100 nM |  |
| O=[N+]([O-])c1ccccc1NCCC12CCCN1CCC2 [Example 23, N-[2-(1-Azabicyclo[3.3.0]octan-5-yl)ethyl]-2-nitroaniline] | 100 nM |  |
| CN(CCC12CCCN1CCC2)c1ccccc1[N+](=O)[O-] [Example 25, N-[2-(1-Azabicyclo[3.3.0]octan-5-yl)ethyl]-N-methyl-2-nitroaniline] | 200 nM |  |
| N#Cc1ccccc1NCCC12CCCN1CCC2 [Example 27, 2-[2-(1-Azabicyclo[3.3.0]octan-5-yl)ethylamino]benzonitrile] | 320 nM |  |
| N#Cc1ccc(NCCC23CCCN2CCC3)cc1 [Example 28, 4-[2-(1-Azabicyclo[3.3.0]octan-5-yl)ethylamino]-benzonitrile] | 4570 nM |  |
| CN(CCC12CCCN1CCC2)c1ccccc1C#N [Example 29, 2-{[2-(1-Azabicyclo[3.3.0]octan-5-yl)ethyl]methylamino}-benzonitrile] | 240 nM |  |
| Clc1ccccc1NCCC12CCCN1CCC2 [Example 30, N-[2-(1-Azabicyclo[3.3.0]octan-5-yl)ethyl]-2-chloroaniline] | 430 nM |  |
| Fc1ccccc1NCCC12CCCN1CCC2 [Example 31, N-[2-(1-Azabicyclo[3.3.0]octan-5-yl)ethyl]-2-fluoroaniline] | 1590 nM |  |
| O=[N+]([O-])c1cc(F)ccc1NCCC12CCCN1CCC2 [Example 32, N-[2-(1-Azabicyclo[3.3.0]octan-5-yl)ethyl]-4-fluoro-2-nitroaniline] | 690 nM |  |
| NC(=O)c1ccccc1NCCC12CCCN1CCC2 [Example 33, 2-{[2-(1-Azabicyclo[3.3.0]octan-5-yl)ethyl]amino}benzamide] |  | IC50 ([1]; read-out: 50% inhibition (IC50) against binding of 3H-pirenzepine to brain homogenate; 2.0 nM 3H-pirenzepine; rat brain homogenate without cerebellum; 550 mM phosphate buffer pH 7.4; 60 minutes at room temperature): 1110 nM |
| N#Cc1ccccc1NCC12CCCN1CCC2 [Example 34, 2-[(1-Azabicyclo[3.3.0]octan-5-yl)methylamino]benzonitrile] | 550 nM |  |
| O=[N+]([O-])c1ccccc1NCCC12CCCN1CCC2 [Example 36, N-[2-(1-Azabicyclo[3.3.0]octan-5-yl)ethyl]-2-nitroaniline(fumarate)] | 90 nM |  |
| Nc1c2c(nc3ccccc13)CCCC2 [THA, 1,2,3,4tetrahydro-9-aminoacridine] |  | inhibition to acetylcholine esterase [2]: its action cannot be said as powerful |
